{"source": "patent US8148354B2", "about": "“Use of 20(S)-protopanaxadiol in manufacture of antidepressants” (priority 2006, dated 2012)", "key": {"[1]": {"system": "Reserpine-Induced Ptosis in Mice", "assay": "Inhibition of reserpine-induced ptosis", "format": "in vivo, Kunming mice", "settings": "reserpine 2 mg/kg i.p., 10 mice per group", "protocol": "Fifty male Kunming mice, 8-9 weeks old and weighing 18-22 g, were randomly divided by weight into 5 groups, and administered by gavage a single dose of one of the drugs listed in Table 3 for 10 consecutive days. Sixty minutes after the last dose, mice were given an i.p. injection of reserpine (2 mg/kg). After 60 minutes, mice were put on a bracketed stand and observed for 2 minutes. The number of animals with at least one upper eyelid closed was recorded. Fisher's exact test was used for statistical analysis."}, "[2]": {"system": "mice in the tail suspension test", "assay": "Tail suspension test in mice", "format": "in vivo, Kunming mice", "settings": "mean ± SD", "description": "Fifty male Kunming mice, 9-10 weeks old and weighing 22-24 g, were randomly divided by weight into 5 groups and administered by gavage a dose of one of the drugs listed in Table 6. Sixty minutes later, mice were individually suspended by the tail (1 cm from the tip) to a horizontal 1 cm-diameter PVC bar by use of the adhesive tape. The tail of mouse was thereby prevented from twisting. The PVC bar was placed overhead to suspend the mouse upside-down, keeping the head 5 cm above the table surface. To avoid interference, each mouse was partitioned by clapboard. […] T-test was used for statistical analysis.\nFifty male Kunming mice, 8-9 weeks old and weighing 18-22 g, were randomly divided by weight into 5 groups, and administered by gavage a dose of one of the drugs listed in Table 7 for 10 consecutive days. Sixty minutes after the last dose, mice were individually suspended by the tail (1 cm from the tip) from a horizontal 1 cm-diameter PVC bar using the adhesive tape. The tail of the mouse was thereby prevented from twisting. The PVC bar was placed overhead to suspend the mouse upside down, keeping the head 5 cm above the table surface. To avoid interference, each mouse was partitioned by clapboard."}, "[3]": {"system": "chronic unpredictable stress rats", "assay": "Chronic unpredictable stress testing of rats (open-field test)", "format": "in vivo", "settings": "mean ± SD", "protocol": "Male stressed SD rats were housed individually and exposed for 21 days to the following unpredictable stressors: ice water swimming (4° C., 5 min), tail pinch (3 min), water deprivation (40 h), food deprivation (40 h), paired feeding, wet bedding, binding, and overnight lighting, each stress was applied two or three times. Animals in the non-stressed control group were housed 5 per cage. An open-field test was used to observe behavior. A large cubiform box (80×80×40 cm) was employed in which the floor was divided into 25 grids of equal size using white lines, with the same size grids also marked on the surrounding walls. The number of floor grids crossed (crossing) and the number of rearing up on hind limbs (rearing) were recorded. Observations of each rat were made every 3 minutes on the 22nd day. T test was used for statistical analysis."}, "[4]": {"system": "model rats wearing shackles", "assay": "Stress testing of rats wearing shackles (open-field test)", "format": "in vivo", "settings": "shackle model rats, mean ± SD", "description": "(§1) (i) Modeling Method: Sixty male SD rats, 8-9 weeks old and weighing 200-250 g, were randomly divided into 6 groups and subjected to gavage once a day as shown in Table 9. On the first day, individually housed rats were fitted with a cylindrical plastic shackle-like device composed of two pieces of red organic glass 0.2 cm-thick and 4 cm in diameter. The device could be adjusted according to the size of the animals and was worn for 21 days.\n(ii) Test Indexes: Behavior such as rearing up; grabbing and gnawing; braying; slowness in reactions; action tardiness; narrowing of the eyes with secretion; yellow of fur; small, dry and fewer feces; borrow-reddish fail with scales and weight loss. An open-field test was used to observe the behavior of animals on day 21 (the same method used with the chronic stress rat model)."}, "[5]": {"system": "monoamine neurotransmitter and its metabolite in cerebral tissues", "assay": "Measure of cerebral neurotransmitters in rats wearing shackles (HPLC-ECD)", "format": "in vivo, SD rats", "settings": "shackle model rats, brain", "description": "as §1\nPreparation of Cerebral Tissues: Rats were Sacrificed by Femoral Arterial Exsanguination, and whole brains were weighed after the cerebellum was excised and homogenized in 950 μl (0.1 mol/L) perchloric acid (containing 0.05% Na2EDTA) and 50 μl (2 μg/ml) of DHBA. This material was then centrifuged at 11,000 rpm/for 10 minutes and, 10 μl of the supernatant were taken for testing. Results were as follows: The amount of each neurotransmitter was shown as the wet weight (ng/g) in cerebral tissues.\nChromatographic conditions: Chromatography was performed with a Shimadzu HPLC system, which was equipped with an L-BCD-6A electrochemical detector (detection range: 0.1-500 nA), a chromatographic column of 5 μm, 200 mm×4.6 mm ID glassy carbon electrode; the flow rate employed was 1.2 ml/min, the operating voltage was +0.75 V; and oxygenation was maintained. An NP2000 workstation was used for data recording and processing (Intelligence Information Institute of Zhejiang University). The potential difference between the working electrode and reference electrode was 0.75 V. The mobile phase, prepared with deionized water and degassed, consisted of 0.1 mmol/L citric acid-0.1 mmol/L sodium acetate buffer at pH4.37 with 10% ethanol. A mixture of a B81.2 mmol/L ion pair and 1.3 mmol/L Di-n-butylamine was used after degasification of the G4 glass filler.\nPreparation of standard solutions: The stock solutions were 2 μg/ml for DHBA and 20 μg/ml for NE, DA, DOPAC, 5-HT, 5-HIAA and HAV. Standard solution 6 was prepared by mixing 20 μl each of NE, DA, DOPAC, 5-HT, 5-HIAA and HAV, then 80 μl of 0.1 mM mmol/LHCLO4 were added. Standard solution 7 (100 ng/ml) was prepared by mixing 50 μl of standard solution 6, 50 μl DHBA and 900 μl 0.1 mmol/LHCLO4. Standard solution 7 (10 μl) was used for HPLC."}, "[6]": {"system": "5-HTP-Induced Tremors in Mice", "assay": "L-5-HTP induced tremor testing of mice", "format": "in vivo, Kunming mice", "settings": "10 mice per group", "protocol": "Seventy male Kunming mice, 8-9 weeks old and weighing 18-22 g, were randomly divided by weight into 7 groups and administered a single dose by gavage as shown in Table 13. […] Then, mice were individually put into cages (16×27 cm) and observed for 20 minutes. The number of animals with tremors was recorded. Fisher's exact test was used for statistical analysis."}, "NA Re-uptake": {"system": "NA Re-uptake", "assay": "NA re-uptake test ([3H]-norepinephrine, corpus striatum homogenate)", "format": "biochemical, SD rats"}, "[7]": {"settings": "open-field day 21, 16 mg/kg × 21 i.g."}}, "note": "Marks after values point to notes of the source that are not given here."}
{"smiles": "CNCCC(Oc1ccc(C(F)(F)F)cc1)c1ccccc1", "note": "(stereo not shown) [Fluoxetine, reference compound]", "values": [{"measurement": "Number of animals with at least one upper eyelid closed", "setting": "[1]; 18 mg/kg × 10 i.g.", "result": "4*"}, {"measurement": "Cumulative immobility within 6 minutes", "setting": "[2]; multiple dose 18 mg/kg × 10 i.g.", "result": "59.10 ± 35.40", "unit": "s"}, {"measurement": "Cumulative immobility within 6 minutes", "setting": "[2]; single dose 18 mg/kg × 1 i.g.", "result": "70.90 ± 23.11", "unit": "s"}, {"measurement": "Number of crossing", "setting": "[3]; 16 mg/kg × 21 i.g.", "result": "44.40 ± 1.45", "unit": "times/3 min"}, {"measurement": "Number of rearing", "setting": "[3]; 16 mg/kg × 21 i.g.", "result": "11.30 ± 3.43", "unit": "times/3 min"}, {"measurement": "Number of crossing", "setting": "[4]; [7]", "result": "11.20 ± 3.08", "unit": "times/3 min"}, {"measurement": "Number of rearing", "setting": "[4]; [7]", "result": "49.80 ± 20.31", "unit": "times/3 min"}, {"measurement": "Concentration of monoamine neurotransmitter and its metabolite: 5-HIAA", "setting": "[5]; 16 mg/kg × 21 i.g.", "result": 8.42, "unit": "ng/g nerve tissues"}, {"measurement": "Concentration of monoamine neurotransmitter and its metabolite: 5-HT", "setting": "[5]; 16 mg/kg × 21 i.g.", "result": "136.88 ± ng/g nerve tissues"}, {"measurement": "Concentration of monoamine neurotransmitter and its metabolite: DA", "setting": "[5]; 16 mg/kg × 21 i.g.", "result": 406.97, "unit": "ng/g nerve tissues"}, {"measurement": "Concentration of monoamine neurotransmitter and its metabolite: DOPAC", "setting": "[5]; 16 mg/kg × 21 i.g.", "result": 21.53, "unit": "ng/g nerve tissues"}, {"measurement": "Concentration of monoamine neurotransmitter and its metabolite: HAV", "setting": "[5]; 16 mg/kg × 21 i.g.", "result": "62.17 ± ng/g nerve tissues"}, {"measurement": "Concentration of monoamine neurotransmitter and its metabolite: NE", "setting": "[5]; 16 mg/kg × 21 i.g.", "result": "13.67 ± ng/g nerve tissues"}, {"measurement": "Number of running animals", "setting": "[6]; 18 mg/kg × 1 i.g., with 5-HTP 200 mg/kg i.p.", "result": "8***"}, {"measurement": "Number of running animals", "setting": "[6]; 18 mg/kg × 1 i.g., without 5-HTP", "result": 0}, {"measurement": "Amount of re-uptake", "setting": "NA Re-uptake; concentration 1 μg/ml", "result": "4311.8 ± 733.8", "unit": "dmp"}]}
{"smiles": "CC(C)=CCC[C@](C)(O)[C@H]1CC[C@]2(C)[C@@H]1[C@H](O)C[C@@H]1[C@@]3(C)CC[C@H](O)C(C)(C)[C@@H]3CC[C@]12C", "note": "[20(S)-protopanaxadiol]", "values": [{"measurement": "Number of animals with at least one upper eyelid closed", "setting": "[1]; 3.75 mg/kg × 10 i.g.", "result": 9}, {"measurement": "Number of animals with at least one upper eyelid closed", "setting": "[1]; 7.5 mg/kg × 10 i.g.", "result": 8}, {"measurement": "Cumulative immobility within 6 minutes", "setting": "[2]; single dose 3.75 mg/kg × 1 i.g.", "result": "95.00 ± 36.21", "unit": "s"}, {"measurement": "Cumulative immobility within 6 minutes", "setting": "[2]; single dose 7.5 mg/kg × 1 i.g.", "result": "92.30 ± 32.93", "unit": "s"}, {"measurement": "Number of crossing", "setting": "[3]; 3.33 mg/kg × 21 i.g.", "result": "32.90 ± 13.19", "unit": "times/3 min"}, {"measurement": "Number of rearing", "setting": "[3]; 3.33 mg/kg × 21 i.g.", "result": "6.50 ± 2.64", "unit": "times/3 min"}, {"measurement": "Number of crossing", "setting": "[4]; open-field day 21, 3.33 mg/kg × 21 i.g.", "result": "7.00 ± 2.05", "unit": "times/3 min"}, {"measurement": "Concentration of monoamine neurotransmitter and its metabolite: 5-HIAA", "setting": "[5]; 3.33 mg/kg × 21 i.g.", "result": 8.78, "unit": "ng/g nerve tissues"}, {"measurement": "Concentration of monoamine neurotransmitter and its metabolite: DA", "setting": "[5]; 3.33 mg/kg × 21 i.g.", "result": 375.96, "unit": "ng/g nerve tissues"}, {"measurement": "Concentration of monoamine neurotransmitter and its metabolite: DOPAC", "setting": "[5]; 3.33 mg/kg × 21 i.g.", "result": 21.57, "unit": "ng/g nerve tissues"}, {"measurement": "Concentration of monoamine neurotransmitter and its metabolite: 5-HIAA", "setting": "[5]; 6.67 mg/kg × 21 i.g.", "result": 9.02, "unit": "ng/g nerve tissues"}, {"measurement": "Concentration of monoamine neurotransmitter and its metabolite: 5-HT", "setting": "[5]; 6.67 mg/kg × 21 i.g.", "result": 113.18, "unit": "ng/g nerve tissues"}, {"measurement": "Concentration of monoamine neurotransmitter and its metabolite: DA", "setting": "[5]; 6.67 mg/kg × 21 i.g.", "result": 401.67, "unit": "ng/g nerve tissues"}, {"measurement": "Concentration of monoamine neurotransmitter and its metabolite: DOPAC", "setting": "[5]; 6.67 mg/kg × 21 i.g.", "result": 22.17, "unit": "ng/g nerve tissues"}, {"measurement": "Concentration of monoamine neurotransmitter and its metabolite: HAV", "setting": "[5]; 6.67 mg/kg × 21 i.g.", "result": 56.37, "unit": "ng/g nerve tissues"}, {"measurement": "Concentration of monoamine neurotransmitter and its metabolite: 5-HIAA", "setting": "[5]; 13.33 mg/kg × 21 i.g.", "result": 8.62, "unit": "ng/g nerve tissues"}, {"measurement": "Concentration of monoamine neurotransmitter and its metabolite: 5-HT", "setting": "[5]; 13.33 mg/kg × 21 i.g.", "result": 102.81, "unit": "ng/g nerve tissues"}, {"measurement": "Concentration of monoamine neurotransmitter and its metabolite: DA", "setting": "[5]; 13.33 mg/kg × 21 i.g.", "result": 394.41, "unit": "ng/g nerve tissues"}, {"measurement": "Concentration of monoamine neurotransmitter and its metabolite: DOPAC", "setting": "[5]; 13.33 mg/kg × 21 i.g.", "result": 20.68, "unit": "ng/g nerve tissues"}, {"measurement": "Concentration of monoamine neurotransmitter and its metabolite: HAV", "setting": "[5]; 13.33 mg/kg × 21 i.g.", "result": 53.19, "unit": "ng/g nerve tissues"}, {"measurement": "Concentration of monoamine neurotransmitter and its metabolite: NE", "setting": "[5]; 13.33 mg/kg × 21 i.g.", "result": 11.04, "unit": "ng/g nerve tissues"}, {"measurement": "Number of running animals", "setting": "[6]; 3.75 mg/kg × 1 i.g., with 5-HTP 200 mg/kg i.p.", "result": 2}, {"measurement": "Amount of re-uptake", "setting": "NA Re-uptake; concentration 0.01 μg/ml", "result": "5347.8 ± 555.1", "unit": "dmp"}, {"measurement": "Inhibitory rate", "setting": "NA Re-uptake; concentration 0.01 μg/ml", "result": 4.4, "unit": "%"}, {"measurement": "Amount of re-uptake", "setting": "NA Re-uptake; concentration 0.1 μg/ml", "result": "5137.2 ± 465.7", "unit": "dmp"}, {"measurement": "Inhibitory rate", "setting": "NA Re-uptake; concentration 0.1 μg/ml", "result": 8.2, "unit": "%"}, {"measurement": "Amount of re-uptake", "setting": "NA Re-uptake; concentration 1 μg/ml", "result": "4950.6 ± 534.5", "unit": "dmp"}, {"measurement": "Inhibitory rate", "setting": "NA Re-uptake; concentration 1 μg/ml", "result": 11.5, "unit": "%"}, {"measurement": "Amount of re-uptake", "setting": "NA Re-uptake; concentration 10 μg/ml", "result": "4690.1 ± 332.1", "unit": "dmp"}, {"measurement": "Inhibitory rate", "setting": "NA Re-uptake; concentration 10 μg/ml", "result": 16.2, "unit": "%"}]}
